One test has as its system STK4 protein. Nature of the test: Western blotting of STK4 in DU145 cells. It counts as cell-based. Particulars: 20 μM. The method, then:
A previous study has shown that miR-18a represses serine/threonine protein kinase 4 (STK4) protein, a tumor suppressor, in prostate cancer cells and promotes tumorigenesis.^45 Thus, we studied the ability of compound 4 to de-repress STK4 and trigger apoptosis. Treatment of DU145 cells with 20 μM of 4 increases levels of STK4 by 2.5-fold (FIG. 9A).
Western Blotting: Cells were grown in 6-well plates to ˜80% confluency in complete growth medium and then incubated with 10 or 20 μM of 4 for 48 h. Total protein was extracted using M-PER Mammalian Protein Extraction Reagent (Pierce Biotechnology) per the manufacturer's recommended protocol. Extracted total protein was quantified using a Micro BCA Protein Assay Kit (Pierce Biotechnology). […]
The membrane was briefly washed with 1× Tris-buffered saline (TBS; 50 mM Tris-CI, pH 7.5. 150 mM NaCl) and blocked with 5% milk in 1×TBST (1×TBS containing 0.05% Tween-20) for 1 h at room temperature. […] After washing with 1×TBST, protein expression was quantified using SuperSignal West Pico Chemiluminescent Substrate (Pierce Biotechnology) per the manufacturer's protocol.
The membrane was then stripped using 1× Stripping Buffer (200 mM glycine, 1% Tween-20 and 0.1% SDS, pH 2.2) followed by washing in 1×TBST. […] ImageJ software from the National Institutes of Health was used to quantify band intensities.
(Immunoblotting shows a protein as a band on a membrane.)

Test [1] concerns other miRNAs studied (of the 33 with potential binding sites). Nature of the test: Chem-CLIP in DU145 cell lysates. Set-up: species or system human. Particulars: 10 μM, DU145 cell lysate. The protocol:
Chem-CLIP in Cell Lysates: DU145 cells were cultured as described above in 100 mm dishes and lysed with 500 μL of Cell Lysis Buffer (10 mM Tris pH 7.4, 0.25% Igepal CA-630 and 150 mM NaCl) for 5 min at room temperature. The cell lysate was then centrifuged and the supernatant collected. Next, 10 μM of 4 was added to the lysate in 1×PBS and the sample was incubated for 2 h at room temperature. The reaction was then directly used for pull-down by incubating with 50 μL of streptavidin resin in 1×PBS for 30 min at room temperature. […] RNA was eluted from the streptavidin beads by incubation with 100 μL of 1× Elution Buffer (10 mM EDTA and 95% formamide) at 65° C. for 20 min. The eluted RNA was cleaned up using a Quick-RNA Miniprep Kit (Zymo) per the manufacturer's protocol. RT-qPCR was completed as described above using 50 ng of total RNA in the RT reaction. Expression levels were normalized to 18S rRNA.

The test system of the next test is mature miR-20a. Nature of the test: RT-qPCR of mature miRNA levels in DU145 cells. The class given is cell-based. To be noted: Homo sapiens, DU-145, read-out: IC50 for decrease of mature miRNA. The method, then: (§1) In particular, the mature levels of each miRNA in the cluster were studied by RT-qPCR. In agreement with our in vitro Dicer processing studies (FIG. 8A and Figures S-58-S-62), 4 decreases the amount of mature miR-17, -18a, and -20a at low micromolar concentrations with an IC50 of ˜10 µM, but has no effect on miR-19a, -19b, and -92a (FIG. 8B).
(§2) Cell Culture: DU145 cells were cultured in growth medium (Roswell Park Memorial Institute medium (RPMI) supplemented with 10% fetal bovine serum (FBS)) at 37° C. and 5% CO2
(§3) Total RNA was extracted from cells using a Quick-RNA Miniprep Kit (Zymo Research) per the manufacturer's protocol. Approximately 200 ng of total RNA was used in reverse transcription (RT) reactions, which were completed using a miScript II RT kit (Qiagen) per the manufacturer's protocol. RT-qPCR was performed on a 7900HT Fast Real Time PCR System (Applied Biosystem) using power SYBR Green Master Mix (Applied Biosystems). All primer sets were purchased from Integrated DNA Technologies, Inc. (IDT) or Eurofins (Table S1). The expression levels of mature miRNAs were normalized to U6 small nuclear RNA or 18s rRNA.
(Real-time PCR tracks product formation cycle by cycle.)

The next test has as its system mature miR-17. Nature of the test: RT-qPCR of mature miRNA levels in DU145 cells. The class given is cell-based. To be noted: Homo sapiens, DU-145, read-out: IC50 for decrease of mature miRNA. The protocol: as §1, §2, §3
The next test deals with mature miR-18a. Nature of the test: RT-qPCR of mature miRNA levels in DU145 cells. It counts as cell-based. Particulars: Homo sapiens, DU-145, read-out: IC50 for decrease of mature miRNA. The protocol:
as §1, §2, §3

The target of a further test is 4IL1 RNA. Nature of the test: Competitive binding assay with 4-FL. Particulars: RNA 4IL1, competitive binding with 4-FL; read-out: Binding affinity. The protocol:
(§4) Competitive binding assays were completed by incubating the RNA of interest with 100 nM 4-FL and increasing concentrations of 4. The resulting curves were fit to equation 4:
(§5) [formula] where θ is the percentage of 4-FL bound, [4-FL] is the concentration of 4-FL, Kt is the dissociation constant of RNA and 4-FL, [RNA] is the concentration of RNA, Ct is the concentration of 4, Kd is the dissociation constant for 4, and A is a constant.

A further test addresses 4IL8 RNA. The test can be described thus: Competitive binding assay with 4-FL. Particulars: RNA 4IL8, competitive binding with 4-FL; read-out: Binding affinity. The method, then:
as §4, §5

Usually IC50 stands for the midpoint of a concentration-inhibition curve. `CN1CCN(c2ccc(-c3ccc4nc(-c5cc(C(C)(C)C)c(OCCCC(=O)NCCCN=[N+]=[N-])c(C(C)(C)C)c5)[nH]c4c3)cc2)CC1` [Compound 4]: the “Increase of STK4 levels” value in the test on STK4 protein came out at 2.5 fold. In addition, the “Enrichment in pulled-down fraction” value in test [1] is recorded as “no enrichment”. Further, the IC50 in the test on mature miR-20a, with mature miR-17 and with mature miR-18a was ~10 µM each time. The Kd at 4IL1 RNA is 5.5 ± 1.3 µM; on 4IL8 RNA, 7.5 ± 0.6 µM.

The record behind these values is patent publication US12527788B2, “Defining RNA-small molecule affinity landscapes enables design of a small molecule inhibitor of an oncogenic non-coding RNA” (University of Florida Research Foundation, Incorporated, priority 2017, dated 2026).
